Common to all, as to assay type: functional
The test system of one experiment is CCRF-CEM. Nature of the experiment: Growth inhibition of human CCRF-CEM cells assessed as cell growth at 0.01 uM incubated for 48 hrs by sulforhodamine B assay relative to control. Particulars: read-out: Activity. On the technique in general: Sulforhodamine B stains cellular protein and so reports cell mass.
The test system of experiment [1] is SNB-19. Nature of the experiment: Growth inhibition of human SNB19 cells assessed as cell growth at 0.01 uM incubated for 48 hrs by sulforhodamine B assay relative to control. Particulars: SNB-19, 48 h, read-out: Activity.
The test system of another experiment is CAKI-1. Nature of the experiment: Growth inhibition of human Caki1 cells assessed as cell growth at 0.01 uM incubated for 48 hrs by sulforhodamine B assay relative to control. Particulars: CAKI-1, 48 h, read-out: Activity.
In the next experiment the test system is TK-10. Kind of experiment: Growth inhibition of human TK10 cells assessed as cell growth at 0.01 uM incubated for 48 hrs by sulforhodamine B assay relative to control. Particulars: TK-10, 48 h, read-out: Activity.
The test system of a further experiment is BT-549. Kind of experiment: Growth inhibition of human BT549 cells assessed as cell growth at 0.01 uM incubated for 48 hrs by sulforhodamine B assay relative to control. The note with it: BT-549, 48 h, read-out: Activity.
Experiment [2] relates to SF-539. Kind of experiment: Growth inhibition of human SF539 cells assessed as cell growth at 1 uM incubated for 48 hrs by sulforhodamine B assay relative to control. The note with it: SF-539, 48 h, read-out: Activity.
A further experiment relates to MDA-MB-435. Kind of experiment: Growth inhibition of human MDA-MB-435 cells assessed as cell growth at 1 uM incubated for 48 hrs by sulforhodamine B assay relative to control. Particulars: MDA-MB-435, 48 h, read-out: Activity.
Experiment [3] concerns SK-MEL-28. Kind of experiment: Growth inhibition of human SK-MEL-28 cells assessed as cell growth at 1 uM incubated for 48 hrs by sulforhodamine B assay relative to control. The note with it: SK-MEL-28, 48 h, read-out: Activity.
A further experiment deals with HCC 2998. Nature of the experiment: Growth inhibition of human HCC2998 cells assessed as cell growth at 10 uM incubated for 48 hrs by sulforhodamine B assay relative to control. The note with it: HCC 2998, 48 h, read-out: Activity.
Experiment [4] deals with OVCAR-4. Nature of the experiment: Growth inhibition of human OVCAR4 cells assessed as cell growth at 10 uM incubated for 48 hrs by sulforhodamine B assay relative to control. Particulars: OVCAR-4, 48 h, read-out: Activity.
A further experiment concerns A498. Kind of experiment: Growth inhibition of human A498 cells assessed as cell growth at 10 uM incubated for 48 hrs by sulforhodamine B assay relative to control. The note with it: A498, 48 h, read-out: Activity.
The test system of another experiment is SW-620. Nature of the experiment: Growth inhibition of human SW620 cells assessed as cell growth at 100 uM incubated for 48 hrs by sulforhodamine B assay relative to control. The note with it: SW-620, 48 h, read-out: Activity.
For a further experiment, the system named is MOLT-4. Nature of the experiment: Growth inhibition of human MOLT4 cells assessed as cell growth at 0.003 uM incubated for 48 hrs by sulforhodamine B assay relative to control. Particulars: MOLT-4, 48 h, read-out: Activity.
Experiment [5] has as its system SF-539. Nature of the experiment: Growth inhibition of human SF539 cells assessed as cell growth at 0.003 uM incubated for 48 hrs by sulforhodamine B assay relative to control. Particulars: SF-539, 48 h, read-out: Activity.
Another experiment deals with U-251. Kind of experiment: Growth inhibition of human U251 cells assessed as cell growth at 0.003 uM incubated for 48 hrs by sulforhodamine B assay relative to control. The note with it: U-251, 48 h, read-out: Activity.
In experiment [6] the test system is NCI/ADR-RES. Kind of experiment: Growth inhibition of human NCI/ADR-RES cells assessed as cell growth at 0.003 uM incubated for 48 hrs by sulforhodamine B assay relative to control. The note with it: read-out: Activity.
For experiment [7], the system named is SK-OV-3. Nature of the experiment: Growth inhibition of human SKOV3 cells assessed as cell growth at 0.003 uM incubated for 48 hrs by sulforhodamine B assay relative to control. The note with it: SK-OV-3, 48 h, read-out: Activity.
The next experiment has as its system SF-268. Nature of the experiment: Growth inhibition of human SF268 cells assessed as cell growth at 0.03 uM incubated for 48 hrs by sulforhodamine B assay relative to control. Particulars: SF-268, 48 h, read-out: Activity.
The test system of another experiment is NCI-H226. Nature of the experiment: Growth inhibition of human NCI-H226 cells assessed as cell growth at 0.3 uM incubated for 48 hrs by sulforhodamine B assay relative to control. Particulars: NCI-H226, 48 h, read-out: Activity.
The test system of another experiment is KM12. Kind of experiment: Growth inhibition of human KM12 cells assessed as cell growth at 0.3 uM incubated for 48 hrs by sulforhodamine B assay relative to control. Particulars: KM12, 48 h, read-out: Activity.
The subject of experiment [8] is SK-MEL-28. Kind of experiment: Growth inhibition of human SK-MEL-28 cells assessed as cell growth at 0.3 uM incubated for 48 hrs by sulforhodamine B assay relative to control. The note with it: SK-MEL-28, 48 h, read-out: Activity.
In the next experiment the test system is UACC-257. Kind of experiment: Growth inhibition of human UACC257 cells assessed as cell growth at 0.3 uM incubated for 48 hrs by sulforhodamine B assay relative to control. The note with it: UACC-257, 48 h, read-out: Activity.
Experiment [9] deals with SK-OV-3. Nature of the experiment: Growth inhibition of human SKOV3 cells assessed as cell growth at 0.3 uM incubated for 48 hrs by sulforhodamine B assay relative to control. The note with it: SK-OV-3, 48 h, read-out: Activity.
Another experiment deals with RPMI-8226. Kind of experiment: Growth inhibition of human RPMI8226 cells assessed as cell growth at 3 uM incubated for 48 hrs by sulforhodamine B assay relative to control. Particulars: RPMI-8226, 48 h, read-out: Activity.
A further experiment has as its system A549. Kind of experiment: Growth inhibition of human A549/ATCC cells assessed as cell growth at 3 uM incubated for 48 hrs by sulforhodamine B assay relative to control. The note with it: A549, 48 h, read-out: Activity.
The subject of the next experiment is Malme-3M. Nature of the experiment: Growth inhibition of human MALME-3M cells assessed as cell growth at 3 uM incubated for 48 hrs by sulforhodamine B assay relative to control. Particulars: read-out: Activity.
The test system of experiment [10] is OVCAR-4. Kind of experiment: Growth inhibition of human OVCAR4 cells assessed as cell growth at 3 uM incubated for 48 hrs by sulforhodamine B assay relative to control. Particulars: OVCAR-4, 48 h, read-out: Activity.
Experiment [11] relates to NCI/ADR-RES. Nature of the experiment: Growth inhibition of human NCI/ADR-RES cells assessed as cell growth at 3 uM incubated for 48 hrs by sulforhodamine B assay relative to control. The note with it: read-out: Activity.
For the next experiment, the system named is RXF 393. Kind of experiment: Growth inhibition of human RXF393 cells assessed as cell growth at 3 uM incubated for 48 hrs by sulforhodamine B assay relative to control. The note with it: RXF 393, 48 h, read-out: Activity.
Another experiment has as its system COLO 205. Nature of the experiment: Growth inhibition of human COLO205 cells assessed as cell growth at 30 uM incubated for 48 hrs by sulforhodamine B assay relative to control. Particulars: COLO 205, 48 h, read-out: Activity.
Experiment [12] relates to SNB-19. Nature of the experiment: Growth inhibition of human SNB19 cells assessed as cell growth at 30 uM incubated for 48 hrs by sulforhodamine B assay relative to control. The note with it: SNB-19, 48 h, read-out: Activity.
Another experiment relates to SK-MEL-5. Kind of experiment: Growth inhibition of human SK-MEL-5 cells assessed as cell growth at 30 uM incubated for 48 hrs by sulforhodamine B assay relative to control. The note with it: SK-MEL-5, 48 h, read-out: Activity.
A further experiment concerns SN12C. Nature of the experiment: Growth inhibition of human SN12C cells assessed as cell growth at 30 uM incubated for 48 hrs by sulforhodamine B assay relative to control. Particulars: read-out: Activity.
Another experiment has as its system NCI-H322M. Kind of experiment: Growth inhibition of human NCI-H322M cells assessed as cell growth at 10 uM incubated for 48 hrs by sulforhodamine B assay relative to control. The note with it: read-out: Activity.

Structures are written as SMILES.

Turning to `COc1cc2cc(Oc3ccc(NC(=O)Nc4ccc(Cl)c(Cl)c4)cc3)c(C)nc2cc1OC`, the growth at 0.01 µM in the experiment on CCRF-CEM amounted to 102%; with SNB-19 [1], 94%; in the experiment with CAKI-1, 88%; in the experiment on TK-10 it was 106%; in the experiment on BT-549, 78%. Also, the growth at 1 µM in the experiment on SF-539 [2] is 103%; with MDA-MB-435, 85%; in the experiment with SK-MEL-28 [3], 97%. Further, the growth at 10 µM in the experiment with HCC 2998 is 34%; with OVCAR-4 [4] it was -8%; in the experiment on A498 it was -8%. Besides, the growth at 100 µM in the experiment with SW-620 is -68%.
`COc1cc2cc(Oc3ccc(NC(=O)Nc4ccc(Cl)c(C(F)(F)F)c4)cc3)c(C)nc2cc1OC`: the growth at 0.003 µM in the experiment with MOLT-4 was 102%; in the experiment on SF-539 [5], 108%; with U-251, 97%; in the experiment with NCI/ADR-RES [6] it was 104%; in the experiment on SK-OV-3 [7], 101%. Besides, in the experiment on SF-268, the growth at 0.03 µM was 91%. Further, the growth at 0.3 µM came to 106% in the experiment on NCI-H226; 96% in the experiment on KM12; 91% with SK-MEL-28 [8]; 83% with UACC-257; 103% with SK-OV-3 [9]. For the same compound, the growth at 3 µM is -36% with RPMI-8226; 10% with A549; 12% in the experiment with Malme-3M; 23% in the experiment on OVCAR-4 [10]; 8% in the experiment on NCI/ADR-RES [11]; 10% in the experiment with RXF 393. Also, the growth at 30 µM with COLO 205 is -92%; in the experiment on SNB-19 [12] it was -87%; in the experiment on SK-MEL-5 it was -97%; in the experiment on SN12C, -56%.
For the compound `COc1cc2cc(Oc3ccc(NC(=O)Nc4cc(C(F)(F)F)cc(C(F)(F)F)c4)cc3)c(C)nc2cc1OC`, the growth at 10 µM is 14.9% in the experiment with NCI-H322M, -80% with HCC 2998, -31% in the experiment with OVCAR-4 [4] and -43% with A498. Besides, the growth at 0.01 µM in the experiment on CCRF-CEM was 97%; in the experiment on SNB-19 [1], 95%; in the experiment with CAKI-1, 88%; in the experiment on TK-10, 96%; in the experiment with BT-549 it was 91%. Moreover, the results for the growth at 1 µM in the experiment with SF-539 [2], in the experiment on MDA-MB-435 and in the experiment on SK-MEL-28 [3] were 73%, 84% and 59%, respectively. Further, the growth at 100 µM with SW-620 is -66%.
Turning to `Cc1nc2cc(O)c(O)cc2cc1Oc1ccc(NC(=O)Nc2ccc(Cl)c(Cl)c2)cc1`, the growth at 10 µM in the experiment with NCI-H322M was determined as 94%. Also, the growth at 0.003 µM with MOLT-4 was determined as 106%; with SF-539 [5], 102%; with U-251, 95%; in the experiment with NCI/ADR-RES [6], 100%; with SK-OV-3 [7], 104%. The growth at 0.03 µM in the experiment with SF-268 is 104%. Besides, the growth at 0.3 µM turned out to be 97% with NCI-H226; 104% in the experiment on KM12; 87% in the experiment on SK-MEL-28 [8]; 92% in the experiment on UACC-257; 108% in the experiment with SK-OV-3 [9]. Also, the growth at 3 µM in the experiment with RPMI-8226 is 92%; in the experiment with A549, 98%; in the experiment with Malme-3M, 94%; in the experiment with OVCAR-4 [10] it was 87%; in the experiment on NCI/ADR-RES [11], 85%; in the experiment on RXF 393, 86%. For the same compound, the growth at 30 µM is 16% in the experiment on COLO 205, 2% in the experiment with SNB-19 [12], -47% in the experiment on SK-MEL-5 and -3% in the experiment with SN12C.

(Values after ChEMBL document CHEMBL3994622, “Design and synthesis of new RAF kinase-inhibiting antiproliferative quinoline derivatives. Part 2: Diarylurea derivatives” (Eur J Med Chem, 2017).)
